Test results from the NIST ThermoML archive (doi:10.1021/je4004806).

Assay: xn = mol fraction of the nth substance listed
Details: 101 kPa, Liquid; for viscosity: Capillary tube (Ostwald / Ubbelohde) method; for mass density: Vibrating tube method

CCCCCO [pentan-1-ol] + CCCCCCCC
Details | mass density [kg/m3] | viscosity [mPa·s]
293.15 K, x2 = 0 | 814.59 | 4.042
293.15 K, x2 = 0.1004 | 798.43 | 2.938
293.15 K, x2 = 0.201 | 783.65 | 2.237
293.15 K, x2 = 0.3001 | 770.3 | 1.695
293.15 K, x2 = 0.4 | 757.91 | 1.311
293.15 K, x2 = 0.4984 | 746.71 | 1.046
293.15 K, x2 = 0.5967 | 736.39 | 0.863
293.15 K, x2 = 0.6976 | 726.7 | 0.737
293.15 K, x2 = 0.7983 | 717.79 | 0.652
293.15 K, x2 = 0.8998 | 709.68 | 0.588
298.15 K, x2 = 0 | 810.93 | 3.518
298.15 K, x2 = 0.1004 | 794.68 | 2.568
298.15 K, x2 = 0.201 | 779.81 | 1.972
298.15 K, x2 = 0.3001 | 766.39 | 1.509
298.15 K, x2 = 0.4 | 753.94 | 1.18
298.15 K, x2 = 0.4984 | 742.7 | 0.953
298.15 K, x2 = 0.5967 | 732.34 | 0.796
298.15 K, x2 = 0.6976 | 722.64 | 0.685
298.15 K, x2 = 0.7983 | 713.72 | 0.605
298.15 K, x2 = 0.8998 | 705.59 | 0.55
303.15 K, x2 = 0 | 807.24 | 3.06
303.15 K, x2 = 0.1004 | 790.89 | 2.254
303.15 K, x2 = 0.201 | 775.94 | 1.747
303.15 K, x2 = 0.3001 | 762.45 | 1.349
303.15 K, x2 = 0.4 | 749.95 | 1.068
303.15 K, x2 = 0.4984 | 738.67 | 0.873
303.15 K, x2 = 0.5967 | 728.27 | 0.736
303.15 K, x2 = 0.6976 | 718.55 | 0.638
303.15 K, x2 = 0.7983 | 709.62 | 0.567
303.15 K, x2 = 0.8998 | 701.48 | 0.516
308.15 K, x2 = 0 | 803.53 | 2.659
308.15 K, x2 = 0.1004 | 787.09 | 1.984
308.15 K, x2 = 0.201 | 772.05 | 1.564
308.15 K, x2 = 0.3001 | 758.49 | 1.219
308.15 K, x2 = 0.4 | 745.93 | 0.971
308.15 K, x2 = 0.4984 | 734.6 | 0.802
308.15 K, x2 = 0.5967 | 724.18 | 0.682
308.15 K, x2 = 0.6976 | 714.44 | 0.596
308.15 K, x2 = 0.7983 | 705.49 | 0.532
308.15 K, x2 = 0.8998 | 697.35 | 0.486
313.15 K, x2 = 0 | 799.79 | 2.334
313.15 K, x2 = 0.1004 | 783.26 | 1.755
313.15 K, x2 = 0.201 | 768.13 | 1.393
313.15 K, x2 = 0.3001 | 754.5 | 1.11
313.15 K, x2 = 0.4 | 741.88 | 0.882
313.15 K, x2 = 0.4984 | 730.52 | 0.738
313.15 K, x2 = 0.5967 | 720.07 | 0.636
313.15 K, x2 = 0.6976 | 710.3 | 0.557
313.15 K, x2 = 0.7983 | 701.34 | 0.499
313.15 K, x2 = 0.8998 | 693.2 | 0.457
318.15 K, x2 = 0 | 796.03 | 2.042
318.15 K, x2 = 0.1004 | 779.4 | 1.557
318.15 K, x2 = 0.201 | 764.17 | 1.249
318.15 K, x2 = 0.3001 | 750.47 | 1.01
318.15 K, x2 = 0.4 | 737.81 | 0.807
318.15 K, x2 = 0.4984 | 726.4 | 0.681
318.15 K, x2 = 0.5967 | 715.92 | 0.589
318.15 K, x2 = 0.6976 | 706.14 | 0.521
318.15 K, x2 = 0.7983 | 697.16 | 0.47
318.15 K, x2 = 0.8998 | 689.02 | 0.431
323.15 K, x2 = 0 | 792.23 | 1.805
323.15 K, x2 = 0.1004 | 775.5 | 1.389
323.15 K, x2 = 0.201 | 760.18 | 1.117
323.15 K, x2 = 0.3001 | 746.41 | 0.911
323.15 K, x2 = 0.4 | 733.69 | 0.74
323.15 K, x2 = 0.4984 | 722.24 | 0.63
323.15 K, x2 = 0.5967 | 711.74 | 0.549
323.15 K, x2 = 0.6976 | 701.94 | 0.488
323.15 K, x2 = 0.7983 | 692.95 | 0.442
323.15 K, x2 = 0.8998 | 684.81 | 0.406

CCCCCCCC [octane] + CCCO
Details | mass density [kg/m3] | viscosity [mPa·s]
293.15 K, x1 = 0.0997 | 782.97 | 1.692
293.15 K, x1 = 0.1999 | 766.37 | 1.356
293.15 K, x1 = 0.3 | 752.87 | 1.092
293.15 K, x1 = 0.3997 | 741.8 | 0.934
293.15 K, x1 = 0.4993 | 732.43 | 0.798
293.15 K, x1 = 0.602 | 724.19 | 0.703
293.15 K, x1 = 0.6991 | 717.48 | 0.632
293.15 K, x1 = 0.7994 | 711.55 | 0.587
293.15 K, x1 = 0.9 | 706.48 | 0.556
293.15 K, x1 = 1 | 702.54 | 0.545
298.15 K, x1 = 0.0997 | 778.9 | 1.508
298.15 K, x1 = 0.1999 | 762.25 | 1.216
298.15 K, x1 = 0.3 | 748.72 | 0.991
298.15 K, x1 = 0.3997 | 737.62 | 0.854
298.15 K, x1 = 0.4993 | 728.24 | 0.734
298.15 K, x1 = 0.602 | 719.99 | 0.65
298.15 K, x1 = 0.6991 | 713.3 | 0.589
298.15 K, x1 = 0.7994 | 707.39 | 0.55
298.15 K, x1 = 0.9 | 702.35 | 0.523
298.15 K, x1 = 1 | 698.49 | 0.513
303.15 K, x1 = 0.0997 | 774.8 | 1.352
303.15 K, x1 = 0.1999 | 758.1 | 1.097
303.15 K, x1 = 0.3 | 744.53 | 0.899
303.15 K, x1 = 0.3997 | 733.4 | 0.777
303.15 K, x1 = 0.4993 | 724.01 | 0.675
303.15 K, x1 = 0.602 | 715.77 | 0.603
303.15 K, x1 = 0.6991 | 709.09 | 0.55
303.15 K, x1 = 0.7994 | 703.2 | 0.515
303.15 K, x1 = 0.9 | 698.19 | 0.491
303.15 K, x1 = 1 | 694.44 | 0.485
308.15 K, x1 = 0.0997 | 770.67 | 1.211
308.15 K, x1 = 0.1999 | 753.91 | 0.992
308.15 K, x1 = 0.3 | 740.3 | 0.817
308.15 K, x1 = 0.3997 | 729.15 | 0.712
308.15 K, x1 = 0.4993 | 719.75 | 0.623
308.15 K, x1 = 0.602 | 711.51 | 0.56
308.15 K, x1 = 0.6991 | 704.85 | 0.514
308.15 K, x1 = 0.7994 | 698.98 | 0.484
308.15 K, x1 = 0.9 | 694.02 | 0.463
308.15 K, x1 = 1 | 690.37 | 0.459
313.15 K, x1 = 0.0997 | 766.5 | 1.09
313.15 K, x1 = 0.1999 | 749.69 | 0.898
313.15 K, x1 = 0.3 | 736.04 | 0.745
313.15 K, x1 = 0.3997 | 724.85 | 0.653
313.15 K, x1 = 0.4993 | 715.44 | 0.576
313.15 K, x1 = 0.602 | 707.21 | 0.52
313.15 K, x1 = 0.6991 | 700.57 | 0.481
313.15 K, x1 = 0.7994 | 694.73 | 0.455
313.15 K, x1 = 0.9 | 689.81 | 0.436
313.15 K, x1 = 1 | 686.29 | 0.433
318.15 K, x1 = 0.0997 | 762.28 | 0.984
318.15 K, x1 = 0.1999 | 745.41 | 0.817
318.15 K, x1 = 0.3 | 731.72 | 0.68
318.15 K, x1 = 0.3997 | 720.51 | 0.605
318.15 K, x1 = 0.4993 | 711.09 | 0.534
318.15 K, x1 = 0.602 | 702.87 | 0.485
318.15 K, x1 = 0.6991 | 696.25 | 0.451
318.15 K, x1 = 0.7994 | 690.45 | 0.427
318.15 K, x1 = 0.9 | 685.58 | 0.412
318.15 K, x1 = 1 | 682.19 | 0.412
323.15 K, x1 = 0.0997 | 758.02 | 0.89
323.15 K, x1 = 0.1999 | 741.08 | 0.742
323.15 K, x1 = 0.3 | 727.35 | 0.623
323.15 K, x1 = 0.3997 | 716.12 | 0.554
323.15 K, x1 = 0.4993 | 706.7 | 0.496
323.15 K, x1 = 0.602 | 698.49 | 0.452
323.15 K, x1 = 0.6991 | 691.9 | 0.423
323.15 K, x1 = 0.7994 | 686.13 | 0.403
323.15 K, x1 = 0.9 | 681.32 | 0.389
323.15 K, x1 = 1 | 678.08 | 0.392
